Laboratory results taken from PubChem BioAssay (NCI).
“And” between values parts separate entries of the source, which are not always exact repeats. Equal entries are not always repeated.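 Briefly, cells in 96-well plates were exposed to five compound concentrations for 48 h, and endpoints were estimated by linear interpolation. Here, GI50 denotes the concentration required for 50% inhibition of growth. TGI: total growth inhibition.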

Experiments:
Assay in all cases: DTP human tumour cell line panel, 48 h
MDA-MB-231 breast = system: MDA-MB-231 breast
MOLT-4 leukemia = system: MOLT-4 leukemia
MDA-MB-435 = system: MDA-MB-435
SF-268 CNS = system: SF-268 CNS
DU-145 prostate = system: DU-145 prostate
MALME-3M melanoma = system: MALME-3M melanoma
SK-MEL-5 melanoma = system: SK-MEL-5 melanoma
SK-MEL-28 melanoma = system: SK-MEL-28 melanoma
UACC-62 melanoma = system: UACC-62 melanoma
HS 578T breast = system: HS 578T breast
SK-OV-3 ovarian = system: SK-OV-3 ovarian

| Compound | TGI (MDA-MB-231 breast) | TGI (MOLT-4 leukemia) | TGI (MDA-MB-435) | TGI (SF-268 CNS) [µM] | TGI (DU-145 prostate) | TGI (MALME-3M melanoma) | TGI (SK-MEL-5 melanoma) [µM] | TGI (SK-MEL-28 melanoma) | TGI (UACC-62 melanoma) | TGI (HS 578T breast) [µM] | TGI (SK-OV-3 ovarian) [µM] | GI50 (MOLT-4 leukemia) | GI50 (MDA-MB-435) | GI50 (SK-MEL-28 melanoma) | GI50 (UACC-62 melanoma) | GI50 (HS 578T breast) [µM] |
| --- | --- | --- | --- | --- | --- | --- | --- | --- | --- | --- | --- | --- | --- | --- | --- | --- |
| O=C1CSC2(CC(/C=C/c3ccccc3[N+](=O)[O-])=NN2c2cccc(S(=O)(=O)O)c2)N1c1nc2ccccc2s1 (configuration not stated) | 32 µM | 52.4 µM | 28.1 µM | 41.1 | 27.5 µM | > 75 µM | > 75 | > 75 µM | 29 µM | > 75 | – | – | – | – | – | – |
| O=C(O)Cc1ccc(-n2nnc3c(=O)[nH][nH]c(=O)c32)cc1 | > 100 µM | > 100 µM | > 100 µM | – | > 100 µM | > 100 µM | > 100 | > 100 µM | – | – | – | – | – | – | – | – |
| COC(=O)CCC(=O)c1ccc2c(c1)CC1(Cc3ccccc3C1)C2 | > 100 µM | 52.6 µM | > 100 µM | – | – | > 100 µM | 33.1 | – | > 100 µM | > 100 | > 100 | – | – | – | – | – |
| O=[N+]([O-])c1cnccc1-n1nnc2ccccc21 | – | > 75.7 µM | – | > 62.3 | – | 45.5 µM | 33.3 | 48.4 µM | 33.4 µM | – | 56.6 | – | – | – | – | – |
| CN1CCN(C(=S)N(C(=O)c2ccc(Cl)cc2)C2CCCCC2)CC1 | > 100 µM | > 100 µM | > 100 µM | > 100 | > 100 µM | > 100 µM | > 100 | > 100 µM | > 100 µM | > 100 | – | – | – | – | – | – |
| NCCCCNCCCNC(=O)c1csc(-c2nc(CCN)sc2Cl)n1 | – | > 100 µM | > 100 µM | > 100 | > 100 µM | > 100 µM | > 100 | > 100 µM | > 100 µM | > 100 | > 100 | – | – | – | – | – |
| CCCCCCCCC[C@@H]1C[C@H](O)[C@H](Cc2ccccc2)N1C(=O)OC(C)(C)C | – | > 100 µM | – | 34.6 | – | 34.5 µM | 33.1 | 34.9 µM | 33.3 µM | – | 39 | – | – | – | – | – |
| CC(=O)Nc1ccc2cc3c(nc2n1)c1cccnc1n3S(=O)(=O)c1ccccc1 | > 100 µM | > 100 µM | > 100 µM | > 100 | – | > 100 µM | > 100 | > 100 µM | > 100 µM | > 100 | > 100 | – | – | – | – | – |
| COC(=O)/C=C/c1cc(OC)c2c(c1)C(C(=O)OC)C(c1ccc(O)c(OC)c1)O2 (configuration not stated) | > 25.8 µM and 18.8 µM and 42.1 µM | > 100 µM and 16.7 µM | 4.49 µM and 1.32 µM | > 100 | > 100 µM and 35.7 µM | > 100 µM and 37.4 µM | – | > 100 µM and > 70.4 µM and 86.7 µM | > 56.1 µM and 36.4 µM and 32.9 µM | > 88.1 | > 100 | 5.39 µM and 4.7 µM and 1.94 µM | 1.13 µM and 0.259 µM | > 56.3 µM and 18.9 µM and 9.69 µM | 2.42 µM and 3.37 µM and 1.57 µM | 5.34 |
| C=C(C)[C@H]1C=C[C@@H](OC(C)=O)[C@@]2(COC(C)=O)[C@H](OC(=O)CCC)[C@H]3[C@@H](OC(C)=O)[C@@H](C)C[C@]3(O)C(=O)[C@@](C)(OC(C)=O)[C@H]12 | > 100 µM | > 100 µM | 44.2 µM | > 100 | – | > 100 µM | > 100 | > 100 µM | > 100 µM | > 100 | – | – | – | – | – | – |
| CCN(CC)C(=O)N1CN(c2ccccc2)C2(CCN(CCCC3(c4ccc(F)cc4)OCCO3)CC2)C1=O | – | 34.9 µM | 38.9 µM | 45.5 | 38.3 µM | 36.5 µM | 26.4 | 26.7 µM | 34.9 µM | 37.4 | 61.5 | – | – | – | – | – |
| NC(=O)NC(=O)c1cccc(C(=O)NC(N)=O)n1 | > 100 µM | > 100 µM | > 100 µM | > 100 | > 100 µM | > 100 µM | > 100 | > 100 µM | > 100 µM | – | > 100 | – | – | – | – | – |
| COC(=O)Cc1c(-c2c(CC(=O)OC)c3ccccc3n2C2OC(COC3OC(COC(C)=O)C(OC(C)=O)C(OC(C)=O)C3OC(C)=O)C(O)C(O)C2O)[nH]c2ccccc12 (configuration not stated) | > 100 µM | > 100 µM | > 100 µM | – | > 100 µM | – | > 100 | > 100 µM | > 100 µM | – | > 100 | – | – | – | – | – |
| COc1cc(C2C(Cl)C(=O)N2NC(=O)c2ccccc2O)cc(OC)c1OC (configuration not stated) | – | > 10 µM | > 10 µM | > 10 | 1.91 µM | – | > 10 | – | > 10 µM | > 10 | – | – | – | – | – | – |
| C[C@H](N)C(=O)Nc1ccc(-c2nc3ccccc3s2)cc1Cl | – | 40 µM | 28.7 µM | 43.7 | 32.1 µM | 41.4 µM | 29.9 | 27.7 µM | 31.1 µM | 49.7 | 32.7 | – | – | – | – | – |
| Cc1cc(NS(=O)(=O)c2ccc(N=Nc3c(Nc4ccccc4)nn(-c4ccc(S(=O)(=O)Nc5ccncn5)cc4)c3C)cc2)no1 | > 100 µM | > 100 µM | > 100 µM | – | > 100 µM | > 100 µM | > 100 | > 100 µM | > 100 µM | – | > 100 | – | – | – | – | – |
